Experimental data as given in article PMC4532999 (Scientific Reports, 2015).
Positions of bridges follow the written chain, without caps; N, C: chain ends. Non-standard residues stand in square brackets, D forms with d. Residues, ends and D or L forms follow the SMILES beside them. No end group written: not given here. pY = N[C@@H](Cc1ccc(OP(=O)(O)O)cc1)C(=O)O

Legend:
Abl kinase = Abl kinase (Homo sapiens, UniProt P00519); experiment: BacKin assay, inhibition of phosphorylation of abltide displayed on E. coli; assay type: biochemical; details: 32 μM peptide, Abl kinase 0.2 U/mL, 37 °C, 30 min
Sequence of Abl kinase (P00519 whole entry): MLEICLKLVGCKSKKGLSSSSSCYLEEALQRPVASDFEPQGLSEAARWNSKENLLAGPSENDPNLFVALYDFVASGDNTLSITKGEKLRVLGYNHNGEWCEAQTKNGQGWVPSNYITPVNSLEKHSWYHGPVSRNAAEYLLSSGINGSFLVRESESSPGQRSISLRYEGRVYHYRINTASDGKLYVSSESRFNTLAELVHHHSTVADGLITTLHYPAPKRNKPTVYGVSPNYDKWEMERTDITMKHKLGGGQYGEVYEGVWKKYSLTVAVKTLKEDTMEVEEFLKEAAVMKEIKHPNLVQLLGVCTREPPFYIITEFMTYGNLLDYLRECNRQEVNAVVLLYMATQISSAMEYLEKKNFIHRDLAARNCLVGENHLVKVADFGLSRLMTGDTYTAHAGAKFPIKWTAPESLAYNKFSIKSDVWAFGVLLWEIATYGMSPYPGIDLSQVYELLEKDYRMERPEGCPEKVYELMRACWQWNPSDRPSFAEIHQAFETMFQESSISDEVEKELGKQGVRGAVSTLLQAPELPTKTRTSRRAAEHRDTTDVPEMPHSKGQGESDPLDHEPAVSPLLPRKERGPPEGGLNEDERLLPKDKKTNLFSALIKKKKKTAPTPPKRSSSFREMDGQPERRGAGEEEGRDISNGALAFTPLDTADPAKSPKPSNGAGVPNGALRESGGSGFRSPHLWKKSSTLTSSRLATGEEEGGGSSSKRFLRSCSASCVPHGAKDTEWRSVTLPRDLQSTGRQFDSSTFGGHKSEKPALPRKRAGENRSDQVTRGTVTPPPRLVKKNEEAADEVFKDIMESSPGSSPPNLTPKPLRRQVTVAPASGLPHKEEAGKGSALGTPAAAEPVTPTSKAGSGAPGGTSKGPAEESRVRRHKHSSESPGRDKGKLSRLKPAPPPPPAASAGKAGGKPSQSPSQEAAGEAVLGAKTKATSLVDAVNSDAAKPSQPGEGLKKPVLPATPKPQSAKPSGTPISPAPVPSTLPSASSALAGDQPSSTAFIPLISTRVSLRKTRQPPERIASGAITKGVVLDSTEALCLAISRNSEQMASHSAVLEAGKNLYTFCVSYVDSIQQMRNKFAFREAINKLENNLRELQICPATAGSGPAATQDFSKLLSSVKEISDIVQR

Serum stability assay = details: 100% human serum, 37 °C
Procedure: All peptides were tested at a final concentration of 30 μM in 100% human serum. […] Reactions were stopped at the stipulated times and the serum proteins in each sample were denatured and precipitated, followed by centrifugation at 17,000 g for 10 min to separate the serum proteins from peptide samples. […] The elution time for each peptide was determined by the PBS control from 0 time point. The percentage of peptide remaining at each time point was calculated using the height of the serum-treated peptide peak from time 0 as 100% recovery.

| Compound | percentage of Abl kinase inhibition (Abl kinase) | further results |
| --- | --- | --- |
| CC[C@H](C)[C@@H]1NC(=O)[C@H](C)NC(=O)[C@H](CCC(=O)O)NC(=O)CNC(=O)[C@@H]2CSSC[C@@H]3NC(=O)[C@H](CC(=O)O)NC(=O)[C@H](CO)NC(=O)[C@H](CC(=O)O)NC(=O)[C@H](CCCNC(=N)N)NC(=O)[C@H](CCCNC(=N)N)NC(=O)[C@@H]4CSSC[C@H](NC(=O)[C@H]([C@@H](C)CC)NC(=O)[C@H](CSSC[C@H](NC(=O)[C@H](C)NC(=O)[C@H](Cc5ccccc5)NC(=O)[C@@H]5CCCN5C(=O)[C@H](C)NC(=O)[C@H](C)NC(=O)[C@H](Cc5ccc(O)cc5)NC1=O)C(=O)N1CCC[C@H]1C(=O)N[C@@H](CCCCN)C(=O)N[C@@H]([C@@H](C)CC)C(=O)N[C@@H](CC(C)C)C(=O)N[C@@H](CCCCN)C(=O)N[C@@H](CCCCN)C(=O)N4)NC(=O)[C@H](C)NC(=O)CNC(=O)[C@@H]1CCCN1C3=O)C(=O)N[C@@H](CCCNC(=N)N)C(=O)NCC(=O)N[C@@H](CC(N)=O)C(=O)NCC(=O)N[C@@H](Cc1ccc(O)cc1)C(=O)N2 [MTAbl01] (cyclo(AAPFACPKILKKCRRDSDCPGACICRGNGYCGEAIY); disulfide 6-23, 13-25, 19-31) | 75% |  |
| CC[C@H](C)[C@@H]1NC(=O)[C@H](C)NC(=O)[C@H](CCC(=O)O)NC(=O)CNC(=O)[C@@H]2CSSC[C@@H]3NC(=O)[C@H](CC(=O)O)NC(=O)[C@H](CO)NC(=O)[C@H](CC(=O)O)NC(=O)[C@H](CCCNC(=N)N)NC(=O)[C@H](CCCNC(=N)N)NC(=O)[C@@H]4CSSC[C@H](NC(=O)[C@H]([C@@H](C)CC)NC(=O)[C@H](CSSC[C@H](NC(=O)CNC(=O)[C@H](C)NC(=O)[C@H](Cc5ccccc5)NC(=O)[C@@H]5CCCN5C(=O)[C@H](C)NC(=O)[C@H](C)NC(=O)[C@H](Cc5ccc(O)cc5)NC1=O)C(=O)N1CCC[C@H]1C(=O)N[C@@H](CCCCN)C(=O)N[C@@H]([C@@H](C)CC)C(=O)N[C@@H](CC(C)C)C(=O)N[C@@H](CCCCN)C(=O)N[C@@H](CCCCN)C(=O)N4)NC(=O)[C@H](C)NC(=O)CNC(=O)[C@@H]1CCCN1C3=O)C(=O)N[C@@H](CCCNC(=N)N)C(=O)NCC(=O)N[C@@H](CC(N)=O)C(=O)NCC(=O)N[C@@H](Cc1ccc(O)cc1)C(=O)N2 [MTAbl02] (cyclo(AAPFAGCPKILKKCRRDSDCPGACICRGNGYCGEAIY); disulfide 7-24, 14-26, 20-32) | 90% |  |
| CC[C@H](C)[C@@H]1NC(=O)[C@H](C)NC(=O)[C@H](CCC(=O)O)NC(=O)[C@@H]2CSSC[C@@H]3NC(=O)[C@H](CC(=O)O)NC(=O)[C@H](CO)NC(=O)[C@H](CC(=O)O)NC(=O)[C@H](CCCNC(=N)N)NC(=O)[C@H](CCCNC(=N)N)NC(=O)[C@@H]4CSSC[C@H](NC(=O)[C@H]([C@@H](C)CC)NC(=O)[C@H](CSSC[C@H](NC(=O)CNC(=O)[C@H](C)NC(=O)[C@H](Cc5ccccc5)NC(=O)[C@@H]5CCCN5C(=O)[C@H](C)NC(=O)[C@H](C)NC(=O)[C@H](Cc5ccc(O)cc5)NC1=O)C(=O)N1CCC[C@H]1C(=O)N[C@@H](CCCCN)C(=O)N[C@@H]([C@@H](C)CC)C(=O)N[C@@H](CC(C)C)C(=O)N[C@@H](CCCCN)C(=O)N[C@@H](CCCCN)C(=O)N4)NC(=O)[C@H](C)NC(=O)CNC(=O)[C@@H]1CCCN1C3=O)C(=O)N[C@@H](CCCNC(=N)N)C(=O)NCC(=O)N[C@@H](CC(N)=O)C(=O)NCC(=O)N[C@@H](Cc1ccc(O)cc1)C(=O)N2 [MTAbl03] (cyclo(AAPFAGCPKILKKCRRDSDCPGACICRGNGYCEAIY); disulfide 7-24, 14-26, 20-32) | 50% |  |
| CC[C@H](C)[C@@H]1NC(=O)[C@H](C)NC(=O)[C@H](CCC(=O)O)NC(=O)[C@@H]2CSSC[C@@H]3NC(=O)[C@H](CC(=O)O)NC(=O)[C@H](CO)NC(=O)[C@H](CC(=O)O)NC(=O)[C@H](CCCNC(=N)N)NC(=O)[C@H](CCCNC(=N)N)NC(=O)[C@@H]4CSSC[C@H](NC(=O)[C@H]([C@@H](C)CC)NC(=O)[C@H](CSSC[C@H](NC(=O)[C@H](CCCCN)NC(=O)[C@H](C)NC(=O)[C@H](Cc5ccccc5)NC(=O)[C@@H]5CCCN5C(=O)[C@H](C)NC(=O)[C@H](C)NC(=O)[C@H](Cc5ccc(O)cc5)NC1=O)C(=O)N1CCC[C@H]1C(=O)N[C@@H](CCCCN)C(=O)N[C@@H]([C@@H](C)CC)C(=O)N[C@@H](CC(C)C)C(=O)N[C@@H](CCCCN)C(=O)N[C@@H](CCCCN)C(=O)N4)NC(=O)[C@H](C)NC(=O)CNC(=O)[C@@H]1CCCN1C3=O)C(=O)N[C@@H](CCCNC(=N)N)C(=O)NCC(=O)N[C@@H](CC(N)=O)C(=O)NCC(=O)N[C@@H](Cc1ccc(O)cc1)C(=O)N2 [MTAbl04] (cyclo(AAPFAKCPKILKKCRRDSDCPGACICRGNGYCEAIY); disulfide 7-24, 14-26, 20-32) | ~ 50% |  |
| CC[C@H](C)[C@@H]1NC(=O)[C@H](C)NC(=O)[C@H](CCC(=O)O)NC(=O)CNC(=O)[C@@H]2CSSC[C@@H]3NC(=O)[C@H](CC(=O)O)NC(=O)[C@H](CO)NC(=O)[C@H](CC(=O)O)NC(=O)[C@H](CCCNC(=N)N)NC(=O)[C@H](CCCNC(=N)N)NC(=O)[C@@H]4CSSC[C@H](NC(=O)[C@H]([C@@H](C)CC)NC(=O)[C@H](CSSC[C@H](NC(=O)[C@H](CCCCN)NC(=O)[C@H](C)NC(=O)[C@H](Cc5ccccc5)NC(=O)[C@@H]5CCCN5C(=O)[C@H](C)NC(=O)[C@H](C)NC(=O)[C@H](Cc5ccc(O)cc5)NC1=O)C(=O)N1CCC[C@H]1C(=O)N[C@@H](CCCCN)C(=O)N[C@@H]([C@@H](C)CC)C(=O)N[C@@H](CC(C)C)C(=O)N[C@@H](CCCCN)C(=O)N[C@@H](CCCCN)C(=O)N4)NC(=O)[C@H](C)NC(=O)CNC(=O)[C@@H]1CCCN1C3=O)C(=O)N[C@@H](CCCNC(=N)N)C(=O)NCC(=O)N[C@@H](CC(N)=O)C(=O)NCC(=O)N[C@@H](Cc1ccc(O)cc1)C(=O)N2 [MTAbl05] (cyclo(AAPFAKCPKILKKCRRDSDCPGACICRGNGYCGEAIY); disulfide 7-24, 14-26, 20-32) | ~ 90% |  |
| CC[C@H](C)[C@@H]1NC(=O)[C@H](C)NC(=O)[C@H](CCC(=O)O)NC(=O)CNC(=O)[C@@H]2CSSC[C@@H]3NC(=O)[C@H](CC(=O)O)NC(=O)[C@H](CO)NC(=O)[C@H](CC(=O)O)NC(=O)[C@H](CCCNC(=N)N)NC(=O)[C@H](CCCNC(=N)N)NC(=O)[C@@H]4CSSC[C@H](NC(=O)[C@H]([C@@H](C)CC)NC(=O)[C@H](CSSC[C@H](NC(=O)[C@H](CCCNC(=N)N)NC(=O)[C@H](C)NC(=O)[C@H](Cc5ccccc5)NC(=O)[C@@H]5CCCN5C(=O)[C@H](C)NC(=O)[C@H](C)NC(=O)[C@H](Cc5ccc(OP(=O)(O)O)cc5)NC1=O)C(=O)N1CCC[C@H]1C(=O)N[C@@H](CCCCN)C(=O)N[C@@H]([C@@H](C)CC)C(=O)N[C@@H](CC(C)C)C(=O)N[C@@H](CCCCN)C(=O)N[C@@H](CCCCN)C(=O)N4)NC(=O)[C@H](C)NC(=O)CNC(=O)[C@@H]1CCCN1C3=O)C(=O)N[C@@H](CCCNC(=N)N)C(=O)NCC(=O)N[C@@H](CC(N)=O)C(=O)NCC(=O)N[C@@H](Cc1ccc(O)cc1)C(=O)N2 [MTAbl12] (cyclo(AAPFARCPKILKKCRRDSDCPGACICRGNGYCGEAI[pY]); disulfide 7-24, 14-26, 20-32) |  | stability in human serum (in words; comparison to MCoTI-II at 24 h) (Serum stability assay; 24 h, one-way ANOVA, three replicates): lower stability |
| EAIYAAPFAKKK [abltide, reference compound] |  | time to complete degradation in human serum (Serum stability assay; 30 μM peptide, RP-HPLC): ≤ 1 h |
